Experimental findings from ChEMBL document CHEMBL3045215, “Synthesis and insecticidal activity of 3,4-dihydropyrimidine-2(1H)-thiones against the pulse beetle, Callosobruchus chinensis” (2011) are described below.

For experiment [1], the system named is Callosobruchus chinensis. The experiment can be described thus: Insecticidal activity against Callosobruchus chinensis adults reared on green gram assessed as insect mortality at 1000 mg/L after 24 hr. The class given is functional.
In experiment [2] the test system is Callosobruchus chinensis. Kind of experiment: Insecticidal activity against Callosobruchus chinensis adults reared on green gram assessed as insect mortality after 24 hr. The format is functional.

By mortality is commonly meant the percentage killed.

`Cc1ccc(C2=CC(c3ccccc3)NC(=S)N2)cc1` (configuration not stated): the mortality at 1000 µg/mL in the experiment on Callosobruchus chinensis [1] was 66%.
For `COc1ccc(C2=CC(c3ccc(OC)cc3)NC(=S)N2)cc1` (configuration not stated), the mortality at 1000 µg/mL in the experiment with Callosobruchus chinensis [1] worked out at 70%.
Regarding `COc1ccc(C2C=C(c3ccc(Cl)cc3)NC(=S)N2)cc1` (configuration not stated), in the experiment with Callosobruchus chinensis [1], the mortality at 1000 µg/mL was 40%.
Consider `S=C1NC(c2ccc(Cl)cc2)=CC(c2ccccc2)N1` (configuration not stated), for which the mortality at 1000 µg/mL in the experiment on Callosobruchus chinensis [1] is 78%. The LC50 with Callosobruchus chinensis [2] is listed as 0.00556 mg/cm2.
As for `SC1=NC(c2ccccc2)=CC(c2ccccc2)N1` (configuration not stated), in the experiment with Callosobruchus chinensis [1], the mortality at 1000 µg/mL is 75%. In the experiment on Callosobruchus chinensis [2], the LC50 is reported as 0.00795 mg/cm2.
On to `Fc1ccc(C2C=C(c3ccccc3)NC(=S)N2)cc1` (configuration not stated), for which the mortality at 1000 µg/mL with Callosobruchus chinensis [1] was determined as 60%.
Turning to `COc1ccc(C2=CC(c3ccc(Cl)cc3)NC(=S)N2)cc1` (configuration not stated), in the experiment on Callosobruchus chinensis [1], the mortality at 1000 µg/mL is 82%. Moreover, in the experiment with Callosobruchus chinensis [2], the LC50 was 0.00175 mg/cm2.
Turning to `COc1ccc(C2C=C(c3ccccc3)NC(=S)N2)cc1` (configuration not stated), in the experiment on Callosobruchus chinensis [1], the mortality at 1000 µg/mL came out at 60%. Further, the LC50 in the experiment on Callosobruchus chinensis [2] is reported as 0.00164 mg/cm2.
On to `COP(=O)(OC)OC=C(Cl)Cl` [DICHLORVOS], for which, in the experiment on Callosobruchus chinensis [2], the LC50 was determined as 0.00243 mg/cm2.
Consider `Cc1ccc(C2=CC(c3ccccc3Cl)NC(=S)N2)cc1` (configuration not stated), for which the mortality at 1000 µg/mL with Callosobruchus chinensis [1] was 87%. Further, the LC50 in the experiment with Callosobruchus chinensis [2] is reported as 0.00122 mg/cm2.
For the compound `S=C1NC(c2ccccc2)=CC(c2ccc(Cl)cc2)N1` (configuration not stated), the mortality at 1000 µg/mL with Callosobruchus chinensis [1] amounted to 90%. The LC50 in the experiment on Callosobruchus chinensis [2] is recorded as 0.00289 mg/cm2.
In the case of `Fc1ccc(C2C=C(c3ccc(Cl)cc3)NC(=S)N2)cc1` (configuration not stated), the mortality at 1000 µg/mL with Callosobruchus chinensis [1] is 75%. For the same compound, in the experiment on Callosobruchus chinensis [2], the LC50 is on record as 0.00461 mg/cm2.
Turning to `Cc1ccc(C2=CC(c3ccc(Cl)cc3)NC(=S)N2)cc1` (configuration not stated), in the experiment with Callosobruchus chinensis [1], the mortality at 1000 µg/mL came out at 93%. Also, the LC50 with Callosobruchus chinensis [2] was 0.01227 mg/cm2.
Turning to `COc1ccc(C2=CC(c3ccc(F)cc3)NC(=S)N2)cc1` (configuration not stated), the mortality at 1000 µg/mL in the experiment on Callosobruchus chinensis [1] worked out at 86%. Moreover, the LC50 in the experiment with Callosobruchus chinensis [2] was 0.00304 mg/cm2.
`COc1ccc(C2C=C(c3ccc(C)cc3)NC(=S)N2)cc1` (configuration not stated): the mortality at 1000 µg/mL in the experiment with Callosobruchus chinensis [1] was 80%.
Turning to `S=C1NC(c2ccc(Cl)cc2)=CC(c2ccc(Cl)cc2)N1` (configuration not stated), the mortality at 1000 µg/mL in the experiment on Callosobruchus chinensis [1] was found to be 69%.
Consider `COc1ccc(C2=CC(c3ccccc3Cl)NC(=S)N2)cc1` (configuration not stated), for which the mortality at 1000 µg/mL with Callosobruchus chinensis [1] was determined as 68%.
Turning to `S=C1NC(c2ccccc2)=CC(c2ccccc2Cl)N1` (configuration not stated), the mortality at 1000 µg/mL with Callosobruchus chinensis [1] was 78%. Besides, the LC50 with Callosobruchus chinensis [2] was determined as 0.00201 mg/cm2.
Turning to `COc1ccc(C2=CC(c3ccccc3)NC(=S)N2)cc1` (configuration not stated), the mortality at 1000 µg/mL in the experiment on Callosobruchus chinensis [1] is 68%.
On to `Cc1ccc(C2=CC(c3ccc(F)cc3)NC(=S)N2)cc1` (configuration not stated), for which, in the experiment on Callosobruchus chinensis [1], the mortality at 1000 µg/mL worked out at 68%.
As to `S=C1NC(c2ccc(Cl)cc2)=CC(c2ccccc2Cl)N1` (configuration not stated), the mortality at 1000 µg/mL with Callosobruchus chinensis [1] was 85%. In addition, the LC50 with Callosobruchus chinensis [2] is recorded as 0.00524 mg/cm2.
